Assay results taken from PMC9146896, “Uracil as a Zn-Binding Bioisostere of the Allergic Benzenesulfonamide in the Design of Quinoline–Uracil Hybrids as Anticancer Carbonic Anhydrase Inhibitors” (Pharmaceuticals, 2022).

Assays:
[1] = molecular target: hCA I (Homo sapiens, UniProt P00915); test: Carbonic anhydrase inhibition, colorimetric method (BioVision CA Inhibitor Screening Kit)
[2] = molecular target: hCA II (Homo sapiens, UniProt P00918); test: as above
[3] = molecular target: hCA IX (Homo sapiens, UniProt Q16790); test: as above; details: for Selectivity index I/IX: hCA IX over hCA I; for Selectivity index II/IX: hCA IX over hCA II
[4] = molecular target: hCA XII (Homo sapiens, UniProt O43570); test: as above; details: for Selectivity index I/XII: hCA XII over hCA I; for Selectivity index II/XII: hCA XII over hCA II
hCA XII, sequence (O43570 25-354): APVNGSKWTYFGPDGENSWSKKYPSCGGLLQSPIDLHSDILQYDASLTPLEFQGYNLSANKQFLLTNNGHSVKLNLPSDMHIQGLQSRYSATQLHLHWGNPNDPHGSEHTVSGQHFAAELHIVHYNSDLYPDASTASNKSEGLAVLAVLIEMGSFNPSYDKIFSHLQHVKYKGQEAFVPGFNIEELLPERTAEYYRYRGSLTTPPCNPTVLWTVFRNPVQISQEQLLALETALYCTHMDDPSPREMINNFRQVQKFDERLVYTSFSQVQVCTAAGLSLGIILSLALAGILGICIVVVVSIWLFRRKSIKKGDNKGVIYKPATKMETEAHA

[5] = tested on: breast cancer cell line (MCF-7); test: Antiproliferative activity, MTT assay under hypoxic conditions; details: Homo sapiens, MCF7, read-out: Cytotoxicity IC50 MCF7
[6] = tested on: Bcl-2; test: Assessment of apoptotic marker levels: Bcl-2 in MCF-7; assay type: cell-based
Excerpt: (§1) The two cytoplasmic proteins, B-cell lymphoma protein 2 (Bcl-2) and its associated X protein (Bax), are essential for apoptosis in normal cells. Bax is a promoter and Bcl-2 is an inhibitor of apoptosis. Thus, the effect of 10d and 10l on apoptotic markers Bax and Bcl-2 in a breast cancer cell line (MCF-7) and a lung cancer cell line (A549) has been estimated.

[7] = tested on: Bax; test: Assessment of apoptotic marker levels: Bax in MCF-7; assay type: cell-based
Excerpt: as §1

[8] = tested on: Bcl-2; test: Assessment of apoptotic marker levels: Bcl-2 in A549; assay type: cell-based
Excerpt: as §1

[9] = tested on: Bax; test: Assessment of apoptotic marker levels: Bax in A549; assay type: cell-based
Excerpt: as §1

hCA I, sequence (P00915 whole entry): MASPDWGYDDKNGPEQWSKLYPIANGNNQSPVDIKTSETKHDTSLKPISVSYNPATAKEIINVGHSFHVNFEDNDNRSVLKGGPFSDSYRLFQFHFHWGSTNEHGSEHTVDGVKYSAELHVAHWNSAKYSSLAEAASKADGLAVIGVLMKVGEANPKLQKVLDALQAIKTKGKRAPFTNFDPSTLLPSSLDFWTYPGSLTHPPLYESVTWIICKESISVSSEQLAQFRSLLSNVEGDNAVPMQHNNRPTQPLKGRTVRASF

melting point	IC50 [1]	Ki [1]	IC50 [2]	Ki [2]	IC50 [3]	Ki [3]	Selectivity index I/IX [3]	Selectivity index II/IX [3]	IC50 [4]	Ki [4]	Selectivity index I/XII [4]	Selectivity index II/XII [4]	SMILES	IC50 [5]	Bcl2 [6]	Bax [7]	Bcl2 [8]	Bax [9]
284 to 286 °C	1250 nM	690 nM	1210 nM	670 nM	1370 nM	760 nM	0.91	0.88	590 nM	330 nM	2.12	2.06	Cn1c(N)c(/N=C/c2cc3ccccc3[nH]c2=O)c(=O)[nH]c1=S [Compound 10e, (E)-3-(((6-Amino-1-methyl-4-Oxo-2-thioxo-1,2,3,4-tetrahydropyrimidin-5-yl)imino)methyl) quinolin-2(1H)-one]					
275 to 277 °C	3230 nM	1780 nM	4500 nM	2490 nM	600 nM	330 nM	5.39	7.52	400 nM	220 nM	8.00	11.16	COc1ccc2[nH]c(=O)c(/C=N/c3c(N)[nH]c(=O)[nH]c3=O)cc2c1 [Compound 10h, (E)-6-Amino-5-(((6-methoxy-2-oxo-1,2-dihydroquinolin-3-yl)methylene)amino) pyrimidine-2,4(1H,3H)-dione]					
291 to 293 °C	2110 nM	1170 nM	1070 nM	590 nM	910 nM	510 nM	2.31	1.17	230 nM	130 nM	9.07	4.60	COc1ccc2[nH]c(=O)c(/C=N/c3c(N)n(Cc4ccccc4)c(=O)[nH]c3=O)cc2c1 [Compound 10i, (E)-6-Amino-1-benzyl-5-(((6-methoxy-2-oxo-1,2-dihydroquinolin-3-yl)methylene)amino) pyrimidine-2,4(1H,3H)-dione]					
287 to 289 °C	890 nM	490 nM	2600 nM	1440 nM	870 nM	480 nM	1.02	2.98	620 nM	340 nM	1.43	4.18	CCn1c(N)c(/N=C/c2cc3cc(OC)ccc3[nH]c2=O)c(=O)[nH]c1=O [Compound 10j, (E)-6-Amino-1-ethyl-5-(((6-methoxy-2-oxo-1,2-dihydroquinolin-3-yl)methylene)amino)pyrimidine-2,4(1H,3H)-dione]					
293 to 295 °C	2120 nM	1170 nM	6570 nM	3630 nM	1280 nM	710 nM	1.66	5.14	540 nM	300 nM	3.96	12.26	COc1ccc2[nH]c(=O)c(/C=N/c3c(N)n(C)c(=O)[nH]c3=O)cc2c1 [Compound 10k, (E)-6-Amino-5-(((6-methoxy-2-oxo-1,2-dihydroquinolin-3-yl)methylene)amino)-1-methyl pyrimidine-2,4(1H,3H)-dione]					

More lines, now with the values behind:

SMILES	melting point	IC50 [1]	Ki [1]	IC50 [2]	Ki [2]	IC50 [3]	Ki [3]	Selectivity index I/IX [3]	Selectivity index II/IX [3]	IC50 [4]	Ki [4]	Selectivity index I/XII [4]	Selectivity index II/XII [4]	IC50 [5]	Bcl2 [6]	Bax [7]	Bcl2 [8]	Bax [9]
Nc1[nH]c(=O)[nH]c(=O)c1/N=C/c1cc2ccccc2[nH]c1=O [Compound 10a, (E)-6-Amino-5-(((2-oxo-1,2-dihydroquinolin-3-yl)methylene)amino)pyrimidine-2,4(1H,3H)-dione]	270 to 272 °C	970 nM	530 nM	520 nM	290 nM	250 nM	140 nM	3.88	2.09	320 nM	170 nM	3.05	1.65					
Nc1c(/N=C/c2cc3ccccc3[nH]c2=O)c(=O)[nH]c(=O)n1Cc1ccccc1 [Compound 10b, (E)-6-Amino-1-benzyl-5-(((2-oxo-1,2-dihydroquinolin-3-yl)methylene)amino) pyrimidine-2,4(1H,3H)-dione]	280 to 282 °C	1010 nM	560 nM	1140 nM	630 nM	630 nM	350 nM	1.60	1.81	350 nM	190 nM	2.88	3.24					
CCn1c(N)c(/N=C/c2cc3ccccc3[nH]c2=O)c(=O)[nH]c1=O [Compound 10c, (E)-6-Amino-1-ethyl-5-(((2-oxo-1,2-dihydroquinolin-3-yl)methylene)amino)pyrimidine-2,4(1H,3H)-dione]	290 to 292 °C	1760 nM	970 nM	660 nM	370 nM	400 nM	220 nM	4.37	1.65	490 nM	270 nM	3.62	1.37					
CCn1c(N)c(/N=C/c2cc3cccc(C)c3[nH]c2=O)c(=O)[nH]c1=O [Compound 10f, (E)-6-Amino-1-ethyl-5-(((8-methyl-2-oxo-1,2-dihydroquinolin-3-yl)methylene)amino)pyrimidine-2,4(1H,3H)-dione]	278 to 280 °C	330 nM	180 nM	790 nM	440 nM	270 nM	140 nM	1.23	2.99	170 nM	90 nM	1.95	4.72					
Cc1cccc2cc(/C=N/c3c(N)n(C)c(=S)[nH]c3=O)c(=O)[nH]c12 [Compound 10g, (E)-3-(((6-Amino-1-methyl-4-oxo-2-thioxo-1,2,3,4-tetrahydropyrimidin-5-yl)imino)methyl)-8-methylquinolin-2(1H)-one]	265 to 267 °C	2160 nM	1200 nM	3360 nM	1860 nM	1080 nM	600 nM	1.99	3.10	330 nM	180 nM	6.47	10.05					
CN[C@@H]1C[C@H]2O[C@@](C)([C@@H]1OC)n1c3ccccc3c3c4c(c5c6ccccc6n2c5c31)C(=O)NC4 [Staurosporine, staurosporine, reference compound]														6920 ± 180 nM	2.829 ± 0.07 nm/mL	381.8 ± 11.4 pg/mL	3.78 ± 0.14 nm/mL	310.5 ± 9.7 pg/mL
